Measurements taken from US20050281750A1, “Sprayable compositions comprising a combination of pharmaceutical active agents, an alcohol phase, at least one volatile silicone and a non-volatile oily phase” (GALDERMA S.A., priority 2004, published 2005).

Assays:
Assay type in all cases: physicochemical
[1] = Stability of calcitriol in ethanol (HPLC assay against a reference substance); conditions: for Measured concentration of calcitriol in % relative to T0: 30 ppm in absolute ethanol, 0.02% BHT
From the text: (§1) Calcitriol stability data were generated in various excipients, including ethanol 100, an ethanol 100 (75%)/cyclomethicone 5 (25%) mixture, or oils such as Miglyol 812 and Cetiol SN. • a) Stability of Calcitriol in Ethanol: Solution of 30 ppm of calcitriol in qsp 100% of absolute ethanol, in the presence of 0.02% of BHT. Technique of HPLC assay against a reference substance. At the starting time (T0) the composition is considered to comprise 100% of calcitriol. Measured concentration of calcitriol in % relative to T0: […]

[2] = Stability of calcitriol in Miglyol 812 (caprylic/capric triglycerides) (HPLC assay); conditions: for Measured concentration of calcitriol in % relative to T0: 30 ppm in Miglyol 812, 0.4% BHT
From the text: as §1, with “Ethanol: c) Stability of Calcitriol in Miglyol 812 (Caprylic/Capric Triglycerides):” for “Ethanol:”, “Miglyol 812,” for “absolute ethanol,”, “0.4%” for “0.02%”

[3] = Stability of calcitriol in ethanol/cyclopentasiloxane (HPLC assay against a reference substance); conditions: for Measured concentration of calcitriol in % relative to T0: 30 ppm in 75% absolute ethanol + 25% cyclopentasiloxane, 0.02% BHT
From the text: as §1, with “Ethanol: b) Stability of Calcitriol in Ethanol/Cyclopentasiloxane:” for “Ethanol:”, “qsp 75%” for “qsp 100%”, “absolute ethanol+25% of cyclopentasiloxane,” for “absolute ethanol,”

[4] = Stability of calcitriol in Cetiol SN (cetearyl isononanoate) (HPLC assay); conditions: for Measured concentration of calcitriol in % relative to T0: 30 ppm in Cetiol SN, 0.4% BHT
From the text: as §1, with “Ethanol: d) Stability of Calcitriol in Cetiol SN (Cetearyl Isononanoate):” for “Ethanol:”, “Cetiol SN (cetearyl isononanoate),” for “absolute ethanol,”, “0.4%” for “0.02%”

Measured concentration of calcitriol in % relative to T0 ([1]; +4° C., T 1 week): 97.7%
Measured concentration of calcitriol in % relative to T0 ([1]; +4° C., T 2 weeks): 98.6%
Measured concentration of calcitriol in % relative to T0 ([1]; +4° C., T 3 weeks): 98.1%
Measured concentration of calcitriol in % relative to T0 ([1]; +4° C., T 4 weeks): 97.7%
Measured concentration of calcitriol in % relative to T0 ([1]; +30° C., T 2 weeks): 93.4%
Measured concentration of calcitriol in % relative to T0 ([1]; +30° C., T 4 weeks): 93.0%
Measured concentration of calcitriol in % relative to T0 ([1]; −18° C., T 1 week): 100.9%
Measured concentration of calcitriol in % relative to T0 ([1]; −18° C., T 2 weeks): 100.5%
Measured concentration of calcitriol in % relative to T0 ([1]; −18° C., T 3 weeks): 99.5%
Measured concentration of calcitriol in % relative to T0 ([1]; −18° C., T 4 weeks): 99.5%
Stability of calcitriol (in words) ([1]; in ethanol): good stability
Measured concentration of calcitriol in % relative to T0 ([2]; +4° C., T 2 weeks): 98.3%
Measured concentration of calcitriol in % relative to T0 ([2]; +4° C., T 4 weeks): 105.2%
Measured concentration of calcitriol in % relative to T0 ([2]; +40° C., T 2 weeks): 91%
Measured concentration of calcitriol in % relative to T0 ([2]; +40° C., T 4 weeks): 93.8%
Measured concentration of calcitriol in % relative to T0 ([2]; RT, T 2 weeks): 95.1%
Measured concentration of calcitriol in % relative to T0 ([2]; RT, T 4 weeks): 98.0%
Stability of calcitriol (in words) ([2]; in Miglyol 812): good stability
Measured concentration of calcitriol in % relative to T0 ([3]; +4° C., T 2 weeks): 99.2%
Measured concentration of calcitriol in % relative to T0 ([3]; +4° C., T 3 weeks): 99.6%
Measured concentration of calcitriol in % relative to T0 ([3]; +4° C., T 4 weeks): 97.5%
Measured concentration of calcitriol in % relative to T0 ([3]; +30° C., T 2 weeks): 93.8%
Measured concentration of calcitriol in % relative to T0 ([3]; +30° C., T 4 weeks): 93.3%
Measured concentration of calcitriol in % relative to T0 ([3]; −18° C., T 2 weeks): 100.4%
Measured concentration of calcitriol in % relative to T0 ([3]; −18° C., T 3 weeks): 101.3%
Measured concentration of calcitriol in % relative to T0 ([3]; −18° C., T 4 weeks): 99.2%
Stability of calcitriol (in words) ([3]; in an ethanol/cyclopentasiloxane mixture): good stability
Measured concentration of calcitriol in % relative to T0 ([4]; +4° C., T 2 weeks): 98.6%
Measured concentration of calcitriol in % relative to T0 ([4]; +4° C., T 4 weeks): 98.1%
Measured concentration of calcitriol in % relative to T0 ([4]; +40° C., T 2 weeks): 99.0%
Measured concentration of calcitriol in % relative to T0 ([4]; +40° C., T 4 weeks): 98.9%
Measured concentration of calcitriol in % relative to T0 ([4]; RT, T 2 weeks): 98.7%
Measured concentration of calcitriol in % relative to T0 ([4]; RT, T 4 weeks): 98.4%
Stability of calcitriol (in words) ([4]; in Cetiol SN): good stability
SMILES: C=C1/C(=C\C=C2/CCC[C@]3(C)[C@@H]([C@H](C)CCCC(C)(C)O)CC[C@@H]23)C[C@@H](O)C[C@@H]1O [calcitriol]
